Results on 32 compounds are retold here after US9932314B2, “Pyrazole compounds and their use as T-type calcium channel blockers” (IDORSIA PHARMACEUTICALS LTD, priority 2015, dated 2018).

The target of this assay is T1, voltage-dependent T-type calcium channel subunit alpha-1G (Cav3.2) (Homo sapiens, UniProt O95180).
T1 construct: expressed in transfected cells; host or cells: HEK293
The assay can be described thus: FLIPR calcium flux assay, HEK293 cells recombinantly expressing Cav3.2. As to conditions: Cav3.2-channel, Fluo-4-AM, 3 min incubation, stimulation with 10 mM CaCl2. It counts as cell-based. The essentials:
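Calcium influx was triggered by adding CaCl2 to 10 mM final, 3 min after compounds in tetraethylammonium-based buffer, pH 7.2, reached Fluo-4-AM-loaded recombinant HEK293 cells. The integrated kinetic fluorescence signal per concentration gave concentration-response curves by non-linear sigmoidal regression.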
Background: Calcium flux is commonly read through the fluorescence of an indicator in the cells.

T1 sequence (O95180 whole entry): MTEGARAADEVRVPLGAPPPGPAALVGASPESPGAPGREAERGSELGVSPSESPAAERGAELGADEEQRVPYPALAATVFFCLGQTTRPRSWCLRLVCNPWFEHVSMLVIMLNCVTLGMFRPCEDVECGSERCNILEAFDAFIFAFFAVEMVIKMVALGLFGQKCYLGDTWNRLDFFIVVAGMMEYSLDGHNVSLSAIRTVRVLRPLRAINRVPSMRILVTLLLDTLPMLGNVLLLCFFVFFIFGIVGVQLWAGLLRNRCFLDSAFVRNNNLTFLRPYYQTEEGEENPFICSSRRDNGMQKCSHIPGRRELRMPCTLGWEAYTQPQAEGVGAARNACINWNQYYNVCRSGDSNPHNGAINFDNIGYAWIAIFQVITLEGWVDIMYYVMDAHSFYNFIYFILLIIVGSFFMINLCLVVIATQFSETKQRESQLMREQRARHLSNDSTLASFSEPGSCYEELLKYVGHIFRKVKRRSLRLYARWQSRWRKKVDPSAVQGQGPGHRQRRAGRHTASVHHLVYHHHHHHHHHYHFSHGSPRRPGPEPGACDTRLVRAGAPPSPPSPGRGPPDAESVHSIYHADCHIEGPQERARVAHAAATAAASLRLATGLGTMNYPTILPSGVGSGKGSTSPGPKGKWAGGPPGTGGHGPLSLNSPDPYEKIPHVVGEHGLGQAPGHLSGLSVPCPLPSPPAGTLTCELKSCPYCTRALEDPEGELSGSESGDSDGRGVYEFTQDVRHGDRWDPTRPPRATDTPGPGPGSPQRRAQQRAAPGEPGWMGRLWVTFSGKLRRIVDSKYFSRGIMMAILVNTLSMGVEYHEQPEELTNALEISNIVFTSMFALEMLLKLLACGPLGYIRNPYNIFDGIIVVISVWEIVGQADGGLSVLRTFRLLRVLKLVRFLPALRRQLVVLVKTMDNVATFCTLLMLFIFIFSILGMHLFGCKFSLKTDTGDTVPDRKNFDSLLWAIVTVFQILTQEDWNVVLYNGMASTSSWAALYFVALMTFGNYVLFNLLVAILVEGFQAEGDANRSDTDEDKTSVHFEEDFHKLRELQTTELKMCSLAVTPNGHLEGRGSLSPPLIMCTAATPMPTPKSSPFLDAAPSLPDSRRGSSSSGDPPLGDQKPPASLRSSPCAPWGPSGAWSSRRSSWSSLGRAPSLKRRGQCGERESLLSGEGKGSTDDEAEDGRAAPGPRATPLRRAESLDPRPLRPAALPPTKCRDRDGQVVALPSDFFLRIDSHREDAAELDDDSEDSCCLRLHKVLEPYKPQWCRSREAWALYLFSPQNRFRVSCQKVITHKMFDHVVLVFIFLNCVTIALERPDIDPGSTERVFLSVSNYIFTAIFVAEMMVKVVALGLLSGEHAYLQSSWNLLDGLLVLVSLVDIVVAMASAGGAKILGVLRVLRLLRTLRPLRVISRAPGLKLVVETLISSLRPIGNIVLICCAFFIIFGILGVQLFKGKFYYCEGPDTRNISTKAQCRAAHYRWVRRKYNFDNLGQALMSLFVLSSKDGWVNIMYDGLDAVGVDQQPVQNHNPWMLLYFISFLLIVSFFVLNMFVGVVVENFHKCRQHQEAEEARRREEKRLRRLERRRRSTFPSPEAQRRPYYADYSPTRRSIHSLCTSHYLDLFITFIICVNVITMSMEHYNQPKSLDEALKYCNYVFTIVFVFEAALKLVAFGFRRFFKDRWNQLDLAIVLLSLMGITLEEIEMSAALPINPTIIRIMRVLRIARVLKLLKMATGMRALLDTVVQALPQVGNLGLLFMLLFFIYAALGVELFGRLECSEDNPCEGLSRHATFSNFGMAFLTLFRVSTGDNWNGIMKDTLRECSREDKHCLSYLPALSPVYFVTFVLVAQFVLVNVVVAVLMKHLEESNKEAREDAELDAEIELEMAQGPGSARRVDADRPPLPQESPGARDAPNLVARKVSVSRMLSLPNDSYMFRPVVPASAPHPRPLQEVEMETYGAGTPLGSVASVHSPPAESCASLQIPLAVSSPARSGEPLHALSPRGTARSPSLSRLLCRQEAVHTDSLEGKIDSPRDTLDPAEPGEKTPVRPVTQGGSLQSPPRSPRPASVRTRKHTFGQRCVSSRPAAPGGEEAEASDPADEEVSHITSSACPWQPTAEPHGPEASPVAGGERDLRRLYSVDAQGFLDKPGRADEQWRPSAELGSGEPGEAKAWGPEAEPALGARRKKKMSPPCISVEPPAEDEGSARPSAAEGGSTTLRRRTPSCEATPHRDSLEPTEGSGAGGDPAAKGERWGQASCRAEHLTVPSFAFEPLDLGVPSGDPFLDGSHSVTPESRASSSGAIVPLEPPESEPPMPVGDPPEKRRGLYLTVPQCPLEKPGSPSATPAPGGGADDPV

Turning to `Cc1ccc(CC(=O)Nc2ccn(Cc3ccc(C#N)cn3)n2)cc1OCC(F)(F)F` [Example 381, N-[1-(5-Cyano-pyridin-2-ylmethyl)-1H-pyrazol-3-yl]-2-[4-methyl-3-(2,2,2-trifluoro-ethoxy)-phenyl]-acetamide], the IC50 (commonly the concentration needed to halve the response being measured) was found to be 54 nM.

Consider `N#Cc1ccc(Cn2ccc(NC(=O)Cc3ccc(OCC(F)(F)F)c(F)c3)n2)nc1` [Example 382, N-[1-(5-Cyano-pyridin-2-ylmethyl)-1H-pyrazol-3-yl]-2-[3-fluoro-4-(2,2,2-trifluoro-ethoxy)-phenyl]-acetamide], for which the IC50 came to 114 nM.

For `COC1(c2ccc(CC(=O)Nc3ccn(Cc4ccc(C#N)cn4)n3)cc2)CC1` [Example 384, N-[1-(5-Cyano-pyridin-2-ylmethyl)-1H-pyrazol-3-yl]-2-[4-(1-methoxy-cyclopropyl)-phenyl]-acetamide], the IC50 stood at 128 nM.

Consider `CC(C)c1ccc(CC(=O)Nc2ccn(Cc3ccc(C#N)c(C(F)F)n3)n2)cc1` [Example 385, N-[1-(5-Cyano-6-difluoromethyl-pyridin-2-ylmethyl)-1H-pyrazol-3-yl]-2-(4-isopropyl-phenyl)-acetamide], for which the IC50 was found to be 44 nM.

For the compound `CC(C)c1ccc(CC(=O)Nc2ccn(Cc3cc(C(F)F)c(C#N)cn3)n2)cc1` [Example 386, N-[1-(5-cyano-4-difluoromethyl-pyridin-2-ylmethyl)-1H-pyrazol-3-yl]-2-(4-isopropyl-phenyl)-acetamide], the IC50 amounted to 69 nM.

As for `CC1(C)COc2cc(CC(=O)Nc3ccn(Cc4ccc(C#N)cn4)n3)ccc21` [Example 387, N-[1-(5-Cyano-pyridin-2-ylmethyl)-1H-pyrazol-3-yl]-2-(3,3-dimethyl-2,3-dihydro-benzofuran-6-yl)-acetamide], the IC50 amounted to 122 nM.

On to `N#Cc1cnc(Cn2ccc(NC(=O)Cc3ccc(C4(C(F)(F)F)CC4)cc3)n2)c(F)c1` [Example 389, N-[1-(5-Cyano-3-fluoro-pyridin-2-ylmethyl)-1H-pyrazol-3-yl]-2-[4-(1-trifluoromethyl-cyclopropyl)-phenyl]-acetamide], for which the IC50 amounted to 506 nM.

As to `N#Cc1ccc(Cn2ccc(NC(=O)Cc3ccc(C4(C#N)CC(F)(F)C4)cc3)n2)nc1` [Example 390, 2-[4-(1-Cyano-3,3-difluoro-cyclobutyl)-phenyl]-N-[1-(5-cyano-pyridin-2-ylmethyl)-1H-pyrazol-3-yl]-acetamide], the IC50 was found to be 47 nM.

`Cc1cc(CC(=O)Nc2ccn(Cc3ccc(F)c(C#N)n3)n2)ccc1OCC(F)(F)F` [Example 391, N-[1-(6-Cyano-5-fluoro-pyridin-2-ylmethyl)-1H-pyrazol-3-yl]-2-[3-methyl-4-(2,2,2-trifluoro-ethoxy)-phenyl]-acetamide]: the IC50 worked out at 2.1 nM.

On to `CC(C)Cc1ccc(CC(=O)Nc2ccn(Cc3ccc(C#N)cn3)n2)cc1C#N` [Example 392, 2-(3-Cyano-4-isobutyl-phenyl)-N-[1-(5-cyano-pyridin-2-ylmethyl)-1H-pyrazol-3-yl]-acetamide], for which the IC50 is 101 nM.

In the case of `CC(C)Cc1ccc(CC(=O)Nc2ccn(Cc3ccc(F)c(F)c3)n2)cc1C#N` [Example 393, 2-(3-Cyano-4-isobutyl-phenyl)-N-[1-(3,4-difluoro-benzyl)-1H-pyrazol-3-yl]-acetamide], the IC50 amounted to 51 nM.

For `CC(C)c1ccc(CC(=O)Nc2ccn(Cc3ccc(N4CCC4)cn3)n2)cc1` [Example 394, N-[1-(5-Azetidin-1-yl-pyridin-2-ylmethyl)-1H-pyrazol-3-yl]-2-(4-isopropyl-phenyl)-acetamide], the IC50 amounted to 126 nM.

For `CC(C)c1ccc(CC(=O)Nc2ccn(Cc3ccc(N4CCCC4)cn3)n2)cc1` [Example 395, 2-(4-Isopropyl-phenyl)-N-[1-(5-pyrrolidin-1-yl-pyridin-2-ylmethyl)-1H-pyrazol-3-yl]-acetamide], the IC50 turned out to be 315 nM.

Take `CC(C)c1ccc(CC(=O)Nc2ccn(Cc3ccc(N4CCC(F)(F)C4)cn3)n2)cc1` [Example 396, N-{1-[5-(3,3-Difluoro-pyrrolidin-1-yl)-pyridin-2-ylmethyl]-1H-pyrazol-3-yl}-2-(4-isopropyl-phenyl)-acetamide]: the IC50 amounted to 369 nM.

As for `N#Cc1ccc(Cn2ccc(NC(=O)Cc3ccc(OCC4CC4)c(OC(F)(F)F)c3)n2)nc1` [Example 397, N-[1-(5-Cyano-pyridin-2-ylmethyl)-1H-pyrazol-3-yl]-2-(4-cyclopropylmethoxy-3-trifluoromethoxy-phenyl)-acetamide], the IC50 is 44 nM.

Take `O=C(Cc1ccc(OCC2CC2)c(OC(F)(F)F)c1)Nc1ccn(Cc2ccc(F)c(F)c2)n1` [Example 398, 2-(4-Cyclopropylmethoxy-3-trifluoromethoxy-phenyl)-N-[1-(3,4-difluoro-benzyl)-1H-pyrazol-3-yl]-acetamide]: the IC50 was found to be 39 nM.

Turning to `Cc1cc(CC(=O)Nc2ccn(Cc3cc(C#N)c(F)cn3)n2)ccc1OCC(F)(F)F` [Example 399, N-[1-(4-Cyano-5-fluoro-pyridin-2-ylmethyl)-1H-pyrazol-3-yl]-2-[3-methyl-4-(2,2,2-trifluoro-ethoxy)-phenyl]-acetamide], the concentration for half-maximal inhibition (IC50) was determined as 60 nM.

On to `CC(C)(C)c1ccc(CC(=O)Nc2ccn(Cc3cc(C#N)c(F)cn3)n2)cc1` [Example 400, 2-(4-tert-Butyl-phenyl)-N-[1-(4-cyano-5-fluoro-pyridin-2-ylmethyl)-1H-pyrazol-3-yl]-acetamide], for which the IC50 amounted to 49 nM.

For `CC(C)c1ccc(CC(=O)Nc2ccn(Cc3cc(C#N)c(F)cn3)n2)cc1` [Example 401, N-[1-(4-Cyano-5-fluoro-pyridin-2-ylmethyl)-1H-pyrazol-3-yl]-2-(4-isopropyl-phenyl)-acetamide], the IC50 is 126 nM.

`N#Cc1cc(Cn2ccc(NC(=O)Cc3ccc(C4(C(F)(F)F)CC4)cc3)n2)ncc1F` [Example 402, N-[1-(4-Cyano-5-fluoro-pyridin-2-ylmethyl)-1H-pyrazol-3-yl]-2-[4-(1-trifluoromethyl-cyclopropyl)-phenyl]-acetamide]: the IC50 worked out at 106 nM.

In the case of `N#Cc1ccc(Cn2ccc(NC(=O)Cc3ccc(C4(C#N)CC4)c(C(F)(F)F)c3)n2)nc1` [Example 403, 2-[4-(1-Cyano-cyclopropyl)-3-trifluoromethyl-phenyl]-N-[1-(5-cyano-pyridin-2-ylmethyl)-1H-pyrazol-3-yl]-acetamide], the IC50 turned out to be 97 nM.

Regarding `N#CC1(c2ccc(CC(=O)Nc3ccn(Cc4ccc(F)c(F)c4)n3)cc2C(F)(F)F)CC1` [Example 404, 2-[4-(1-Cyano-cyclopropyl)-3-trifluoromethyl-phenyl]-N-[1-(3,4-difluoro-benzyl)-1H-pyrazol-3-yl]-acetamide], the half-maximal inhibitory concentration (IC50) came to 14 nM.

As to `N#Cc1ccc(Cn2ccc(NC(=O)Cc3ccc(OCC(F)(F)F)c(C4CC4)c3)n2)nc1` [Example 406, N-[1-(5-Cyano-pyridin-2-ylmethyl)-1H-pyrazol-3-yl]-2-[3-cyclopropyl-4-(2,2,2-trifluoro-ethoxy)-phenyl]-acetamide], the IC50 was found to be 15 nM.

As for `N#Cc1nc(Cn2ccc(NC(=O)Cc3ccc(OCC(F)(F)F)c(C4CC4)c3)n2)ccc1F` [Example 408, N-[1-(6-Cyano-5-fluoro-pyridin-2-ylmethyl)-1H-pyrazol-3-yl]-2-[3-cyclopropyl-4-(2,2,2-trifluoro-ethoxy)-phenyl]-acetamide], the IC50 was 8.5 nM.

Regarding `N#Cc1cc(Cn2ccc(NC(=O)Cc3ccc(OCC(F)(F)F)c(C4CC4)c3)n2)ncc1F` [Example 409, N-[1-(4-Cyano-5-fluoro-pyridin-2-ylmethyl)-1H-pyrazol-3-yl]-2-[3-cyclopropyl-4-(2,2,2-trifluoro-ethoxy)-phenyl]-acetamide], the IC50 came out at 43 nM.

For `Cc1cc(CC(=O)Nc2ccn(Cc3ccc(F)c(C#N)n3)n2)ccc1OC(F)(F)F` [Example 410, N-[1-(6-Cyano-5-fluoro-pyridin-2-ylmethyl)-1H-pyrazol-3-yl]-2-(3-methyl-4-trifluoromethoxy-phenyl)-acetamide], the IC50 was 17 nM.

With `CCc1cc(CC(=O)Nc2ccn(Cc3ccc(F)c(C#N)n3)n2)ccc1OCC(F)(F)F` [Example 412, N-[1-(6-Cyano-5-fluoro-pyridin-2-ylmethyl)-1H-pyrazol-3-yl]-2-[3-ethyl-4-(2,2,2-trifluoro-ethoxy)-phenyl]-acetamide], the IC50 is 5.3 nM.

For the compound `CCc1cc(CC(=O)Nc2ccn(Cc3cc(C#N)c(F)cn3)n2)ccc1OCC(F)(F)F` [Example 413, N-[1-(4-Cyano-5-fluoro-pyridin-2-ylmethyl)-1H-pyrazol-3-yl]-2-[3-ethyl-4-(2,2,2-trifluoro-ethoxy)-phenyl]-acetamide], the IC50 worked out at 30 nM.

Consider `Cc1cc(CC(=O)Nc2ccn(Cc3ccc(C#N)cn3)n2)cc(C)c1OCC(F)(F)F` [Example 414, N-[1-(5-Cyano-pyridin-2-ylmethyl)-1H-pyrazol-3-yl]-2-[3,5-dimethyl-4-(2,2,2-trifluoro-ethoxy)-phenyl]-acetamide], for which the IC50 stood at 6.4 nM.

Regarding `Cc1cc(CC(=O)Nc2ccn(Cc3ccc(F)c(C#N)n3)n2)cc(C)c1OCC(F)(F)F` [Example 415, N-[1-(6-Cyano-5-fluoro-pyridin-2-ylmethyl)-1H-pyrazol-3-yl]-2-[3,5-dimethyl-4-(2,2,2-trifluoro-ethoxy)-phenyl]-acetamide], the IC50 stood at 4.9 nM.

On to `Cc1cc(CC(=O)Nc2ccn(Cc3cc(C#N)c(F)cn3)n2)cc(C)c1OCC(F)(F)F` [Example 416, N-[1-(4-Cyano-5-fluoro-pyridin-2-ylmethyl)-1H-pyrazol-3-yl]-2-[3,5-dimethyl-4-(2,2,2-trifluoro-ethoxy)-phenyl]-acetamide], for which the IC50 was found to be 17 nM.

For `Cc1cc(CC(=O)Nc2ccn(Cc3ccc(C#N)cn3)n2)cnc1OCC(F)(F)F` [Example 417, N-[1-(5-Cyano-pyridin-2-ylmethyl)-1H-pyrazol-3-yl]-2-[5-methyl-6-(2,2,2-trifluoro-ethoxy)-pyridin-3-yl]-acetamide], the IC50 was found to be 37 nM.
